Laboratory results taken from patent US11414378B2, “Anti-fungals compounds targeting the synthesis of fungal sphingolipids” (THE RESEARCH FOUNDATION FOR THE STATE UNIVERSITY OF NEW YORK, priority 2017, dated 2022).
≈ marks a conversion by molar mass, not a printed value.

Columns and labels:
C. neoformans cells = experiment: In vitro killing activity (K100) assay; assay type: cell-based, Cryptococcus neoformans; conditions: minimum concentration that kills 100% of C. neoformans cells in 48 h; for MFC: Cryptococcus neoformans
Protocol: C. neoformans cells from a culture grown overnight were washed in PBS and resuspended in YNB buffered with HEPES at pH 7.4. The cells were counted, and 2×10^4 cells were incubated with different concentration of compounds in a final volume of 10 ml with a final concentration of 0.5% DMSO. The tubes were then incubated at 37° C. with 5% CO2 on a rotary shaker at 200 rpm. Aliquots were taken at time points and diluted, and […] were plated onto Yeast Extract-Peptone-Dextrose (YPD) plates. YPD plates were incubated in a 30° C. incubator and after 48 h, the numbers of CFU were counted and recorded.

C. neoformans = experiment: In vitro susceptibility (MIC80) assay; assay type: cell-based; conditions: Cryptococcus neoformans; lowest concentration that inhibited 80% of growth; YNB pH 7.0, HEPES, 37° C., 5% CO2
Protocol: MICs was determined following the methods of the Clinical and Laboratory Standards Institutes (CLSI) with modifications. Yeast Nitrogen Base (YNB) medium (pH 7.0, 0.2% glucose) buffered with HEPES was used for MIC studies. […] The compound was serially diluted from 16 to 0.03 μg/ml, in a 96-well plate. The inoculum was prepared as described in the CLSI protocol M27A3 guidelines. The plates were incubated at 37° C. with 5% CO2 for 24 to 72 h and the optical density was measure at 450 nm. The MICs was determined as the lowest concentration of the compound that inhibited 80% of growth compared to the control.

With `O=C(N/N=C/c1cc(Br)cc(Br)c1O)c1ccc(C(F)(F)F)cc1F` [Compound A9, 2-Fluoro-4-trifluoromethyl-N′-(3,5-dibromo-2-hydroxybenzylidene)benzohydrazide] the MFC (C. neoformans cells) was 0.5 µg/mL (≈ 1.03 µM) and the MIC80 (C. neoformans) was 0.12 µg/mL (≈ 0.248 µM).
In the case of `O=C(N/N=C/c1cc(Br)cc(Br)c1O)C1CCOCC1` [Compound H15, N′-(3,5-dibromo-2-hydroxybenzylidene)tetrahydro-2H-pyran-4-carbohydrazide], the MFC (C. neoformans cells) is reported as over 2 µg/mL and the MIC80 (C. neoformans) is reported as 0.5 µg/mL (≈ 1.23 µM).
`O=C(N/N=C/c1cc(Br)ccc1O)c1ccc(OC(F)(F)F)cc1` [Compound A7, 4-Trifluoromethoxy-N′-(5-bromo-2-hydroxybenzylidene)benzohydrazide] gave an MFC (C. neoformans cells) of over 4 µg/mL and an MIC80 (C. neoformans) of 0.5 µg/mL (≈ 1.24 µM).
`O=C(N/N=C/c1cc(Br)ccc1O)c1cc(Br)co1` [Compound H11, 4-Bromo-N′-(5-bromo-2-hydroxybenzylidene)furan-2-carbohydrazide] showed an MFC (C. neoformans cells) of over 1 µg/mL and an MIC80 (C. neoformans) of 0.25 µg/mL (≈ 0.644 µM).
In the case of `O=C(N/N=C/c1cc(Br)cc(Br)c1O)c1ccc(CF)cc1` [Compound A44, 4-Fluromethyl-N′-(3,5-dibromo-2-hydroxybenzylidene)benzohydrazide], the MFC (C. neoformans cells) is reported as 0.5 µg/mL (≈ 1.16 µM) and the MIC80 (C. neoformans) is reported as 0.5 µg/mL (≈ 1.16 µM).
`O=C(N/N=C/c1cc(Cl)ccc1O)c1ccc(Br)c(Br)c1` [Compound A31, 3,4-Dibromo-N′-(5-chloro-2-hydroxybenzylidene)benzohydrazide] showed an MFC (C. neoformans cells) of over 0.5 µg/mL and an MIC80 (C. neoformans) of 0.06 µg/mL (≈ 0.139 µM).
`O=C(N/N=C/c1cc(Br)ccc1O)c1ccc(OC(F)(F)F)cc1F` [Compound A12, 2-Fluoro-4-trifluoromethoxy-N′-(5-bromo-2-hydroxybenzylidene)benzohydrazide] was tested, and the MFC (C. neoformans cells) was 0.5 µg/mL (≈ 1.19 µM) and the MIC80 (C. neoformans) was 0.5 µg/mL (≈ 1.19 µM).
`O=C(N/N=C/c1cc(Br)cc(Br)c1O)c1ccc(OC(F)F)cc1` [Compound A23, 4-Difluoromethoxy-N′-(3,5-dibromo-2-hydroxybenzylidene)benzohydrazide] gave an MIC80 (C. neoformans) of 0.12 µg/mL (≈ 0.259 µM).
`O=C(N/N=C/c1cc(Br)cc(Br)c1O)c1ccc(OC(F)(F)F)cc1F` [Compound A13, 2-Fluoro-4-trifluoromethoxy-N′-(3,5-dibromo-2-hydroxybenzylidene)-benzohydrazide] gave an MFC (C. neoformans cells) of 0.5 µg/mL (≈ 1 µM) and an MIC80 (C. neoformans) of 0.06 µg/mL (≈ 0.12 µM).
For `O=C(N/N=C/c1cc(Br)cc(Br)c1O)c1ncc(Br)cn1` [Compound H1, 5-Bromo-N′-(3,5-dibromo-2-hydroxybenzylidene)pyrimidine-2-carbohydrazide], the MFC (C. neoformans cells) was over 2 µg/mL and the MIC80 (C. neoformans) was 0.25 µg/mL (≈ 0.522 µM).
Work on `O=C(N/N=C/c1ccc(Br)cc1O)c1cc(Br)cc(Br)c1O` [Compound A18, 3,5-Dibromo-2-hydroxy-N′-(4-bromo-2-hydroxybenzylidene)benzohydrazide] yielded an MFC (C. neoformans cells) of 0.25 µg/mL (≈ 0.507 µM) and an MIC80 (C. neoformans) of 0.25 µg/mL (≈ 0.507 µM).
With `O=C(N/N=C/c1ccc(Br)cc1O)c1cccc(F)c1` [Compound A28, 3-Fluoro-N′-(4-bromo-2-hydroxybenzylidene)benzohydrazide] the MFC (C. neoformans cells) was over 2 µg/mL and the MIC80 (C. neoformans) was 0.5 µg/mL (≈ 1.48 µM).
Work on `O=C(N/N=C/c1ccc(Br)cc1O)c1cccc(C(F)(F)F)c1` [Compound A26, 3-Trifluoromethyl-N′-(4-bromo-2-hydroxybenzylidene)benzohydrazide] yielded an MFC (C. neoformans cells) of 1 µg/mL (≈ 2.58 µM) and an MIC80 (C. neoformans) of 0.5 µg/mL (≈ 1.29 µM).
For `O=C(N/N=C/c1cc(Br)cc(Br)c1O)c1cnc2ccccc2c1` [Compound A10, N′-(3,5-dibromo-2-hydroxybenzylidene) quinolinylhydrazide], the “K100* (μg/mL)” value (C. neoformans cells) was “Fungistatic” and the MIC80 (C. neoformans) was 0.25 µg/mL (≈ 0.557 µM).
`O=C(N/N=C/c1cc(Br)cc(Br)c1O)c1ccc(Br)s1` [Compound H4, 5-Bromo-N′-(3,5-dibromo-2-hydroxybenzylidene)thiophene-2-carbohydrazide] was tested, and the MFC (C. neoformans cells) was over 0.25 µg/mL and the MIC80 (C. neoformans) was 0.06 µg/mL (≈ 0.124 µM).
For `O=C(N/N=C/c1cc(Br)ccc1O)c1ccc(C(F)(F)F)cc1F` [Compound A8, 2-Fluoro-4-trifluoromethyl-N′-(5-bromo-2-hydroxybenzylidene)benzohydrazide], the MFC (C. neoformans cells) was 1 µg/mL (≈ 2.47 µM) and the MIC80 (C. neoformans) was 0.5 µg/mL (≈ 1.23 µM).
For `O=C(N/N=C/c1cc(F)ccc1O)c1ccc(Br)cc1` [Compound A2, 4-Bromo-N′-(5-fluoro-2-hydroxybenzylidene)benzohydrazide], the MFC (C. neoformans cells) was over 4 µg/mL and the MIC80 (C. neoformans) was 1 µg/mL (≈ 2.97 µM).
Compound `O=C(N/N=C/c1cc(Br)ccc1O)c1cc(Br)cc(Br)c1` [Compound A36, 3,5-Dibromo-N′-(5-bromo-2-hydroxybenzylidene)benzohydrazide] has an MFC (C. neoformans cells) of over 5 µg/mL and an MIC80 (C. neoformans) of 0.06 µg/mL (≈ 0.126 µM).
`O=C(N/N=C/c1cc(F)ccc1O)c1ccc(Br)cc1Br` [Compound A4, 2,4-Dibromo-N′-(5-fluoro-2-hydroxybenzylidene)benzohydrazide] was tested, and the MFC (C. neoformans cells) was over 4 µg/mL and the MIC80 (C. neoformans) was 1 µg/mL (≈ 2.4 µM).
With `O=C(N/N=C/c1cc(Br)ccc1O)c1ccc(Br)c(Br)c1` [Compound A33, 3,4-Dibromo-N′-(5-bromo-2-hydroxybenzylidene)benzohydrazide] the MFC (C. neoformans cells) was 2 µg/mL (≈ 4.19 µM) and the MIC80 (C. neoformans) was 0.25 µg/mL (≈ 0.524 µM).
`O=C(N/N=C/c1cc(Br)cc(Br)c1O)c1ccc(Br)c(Br)c1` [Compound A29, 3,4-Dibromo-N′-(3,5-dibromo-2-hydroxybenzylidene)benzohydrazide] gave an MFC (C. neoformans cells) of over 0.5 µg/mL and an MIC80 (C. neoformans) of 0.06 µg/mL (≈ 0.108 µM).
For `O=C(N/N=C/c1ccc(Br)cc1O)c1ccc(Br)c(Br)c1` [Compound A35, 3,4-Dibromo-N′-(4-bromo-2-hydroxybenzylidene)benzohydrazide], the MFC (C. neoformans cells) was over 5 µg/mL and the MIC80 (C. neoformans) was 0.06 µg/mL (≈ 0.126 µM).
For `O=C(N/N=C/c1cc(Br)ccc1O)c1cccc(OC(F)F)c1` [Compound A5, 3-Difluoromethoxy-N′-(5-bromo-2-hydroxybenzylidene)benzohydrazide], the “K100* (μg/mL)” value (C. neoformans cells) was “Fungistatic” and the MIC80 (C. neoformans) was 0.12 µg/mL (≈ 0.312 µM).
With `O=C(N/N=C/c1cc(OC(F)(F)F)ccc1O)c1ccc(Br)cc1` [Compound A1, 4-Bromo-N′-(2-hydroxy-5-trifluoromethoxybenzylidene)benzohydrazide] the MFC (C. neoformans cells) was over 1 µg/mL and the MIC80 (C. neoformans) was 0.25 µg/mL (≈ 0.62 µM).
In the case of `O=C(N/N=C/c1cc(Br)cc(Br)c1O)c1cccc(Br)c1Br` [Compound A42, 2,3-Dibromo-N′-(3,5-dibromo-2-hydroxybenzylidene)benzohydrazide], the MFC (C. neoformans cells) is reported as 0.5 µg/mL (≈ 0.9 µM) and the MIC80 (C. neoformans) is reported as 0.5 µg/mL (≈ 0.9 µM).
`O=C(N/N=C/c1c(O)ccc2ccccc12)c1ccc(Br)s1` [Compound H5, 5-Bromo-N′-((2-hydroxynaphthalen-1-yl)methylene)thiophene-2-carbohydrazide] gave an MFC (C. neoformans cells) of over 0.5 µg/mL and an MIC80 (C. neoformans) of 0.12 µg/mL (≈ 0.32 µM).
Compound `O=C(N/N=C/c1cccc(Br)c1O)c1cccc(C(F)(F)F)c1` [Compound A25, 3-Trifluoromethyl-N′-(3-bromo-2-hydroxybenzylidene)benzohydrazide] has an MFC (C. neoformans cells) of 2 µg/mL (≈ 5.17 µM) and an MIC80 (C. neoformans) of 1 µg/mL (≈ 2.58 µM).
`O=C(N/N=C/c1cc(OC(F)(F)F)ccc1O)c1ccc(Br)cc1Br` [Compound A3, 2,4-Dibromo-N′-(2-hydroxy-5-trifluoromethoxybenzylidene)benzohydrazide] showed an MFC (C. neoformans cells) of 2 µg/mL (≈ 4.15 µM) and an MIC80 (C. neoformans) of 0.25 µg/mL (≈ 0.519 µM).
Work on `O=C(N/N=C/c1ccc(Br)cc1O)c1ccoc1` [Compound H14, N′-(4-bromo-2-hydroxybenzylidene) furan-3-carbohydrazide] yielded an MFC (C. neoformans cells) of over 1 µg/mL and an MIC80 (C. neoformans) of 0.5 µg/mL (≈ 1.62 µM).
In the case of `O=C(N/N=C/c1c(O)ccc2ccccc12)c1cc(Br)cc(Br)c1` [Compound A37, 3,5-Dibromo-N′-(2-hydroxy-1-naphthylidene)benzohydrazide], the MFC (C. neoformans cells) is reported as 0.5 µg/mL (≈ 1.12 µM) and the MIC80 (C. neoformans) is reported as 0.25 µg/mL (≈ 0.558 µM).
With `O=C(N/N=C/c1ccc(Br)cc1O)c1cc(Br)cc(Br)c1` [Compound A39, 3,5-Dibromo-N′-(4-bromo-2-hydroxybenzylidene)benzohydrazide] the MFC (C. neoformans cells) was 1 µg/mL (≈ 2.1 µM) and the MIC80 (C. neoformans) was 1 µg/mL (≈ 2.1 µM).
`O=C(N/N=C/c1cc(Cl)cc(Cl)c1O)c1ccc(Br)c(Br)c1` [Compound A30, 3,4-Dibromo-N′-(3,5-dichloro-2-hydroxybenzylidene)benzohydrazide] was tested, and the MFC (C. neoformans cells) was over 0.025 µg/mL and the MIC80 (C. neoformans) was under 0.03 µg/mL.
For `O=C(N/N=C/c1cc(Cl)cc(Cl)c1O)c1cccc(Br)c1Br` [Compound A43, 2,3-Dibromo-N′-(3,5-dichloro-2-hydroxybenzylidene)benzohydrazide], the MFC (C. neoformans cells) was 1 µg/mL (≈ 2.14 µM) and the MIC80 (C. neoformans) was 1 µg/mL (≈ 2.14 µM).
With `O=C(NN=Cc1ccc(Br)cc1O)c1cc(Br)c(Br)o1` [Compound H8, 4,5-Dibromo-N′-(4-bromo-2-hydroxybenzylidene)furan-2-carbohydrazide] the MFC (C. neoformans cells) was over 0.25 µg/mL and the MIC80 (C. neoformans) was 0.06 µg/mL (≈ 0.129 µM).
For `C#Cc1ccc(C(=O)N/N=C/c2cc(Br)cc(Br)c2O)cc1` [Compound A46, 4-Ethynyl-N′-(3,5-dibromo-2-hydroxybenzylidene)benzohydrazide], the “K100* (μg/mL)” value (C. neoformans cells) was “Fungistatic” and the MIC80 (C. neoformans) was 0.12 µg/mL (≈ 0.284 µM).
Work on `Cc1ccc(O)c(/C=N/NC(=O)c2cc(Br)cc(Br)c2)c1` [Compound A41, 3,5-Dibromo-N′-(2-hydroxy-5-methylbenzylidene)benzohydrazide] yielded an MFC (C. neoformans cells) of 1 µg/mL (≈ 2.43 µM) and an MIC80 (C. neoformans) of 0.5 µg/mL (≈ 1.21 µM).
In the case of `O=C(N/N=C/c1cc(Br)ccc1O)c1cc(Br)c(Br)o1` [Compound H7, 4,5-Dibromo-N′-(5-bromo-2-hydroxybenzylidene) furan-2-carbohydrazide], the MFC (C. neoformans cells) is reported as over 1 µg/mL and the MIC80 (C. neoformans) is reported as 0.25 µg/mL (≈ 0.535 µM).
`O=C(N/N=C/c1cc(Br)ccc1O)c1ccc(OC(F)F)cc1` [Compound A22, 4-Difluoromethoxy-N′-(5-bromo-2-hydroxybenzylidene)benzohydrazide] gave an MIC80 (C. neoformans) of 0.25 µg/mL (≈ 0.649 µM).
Compound `O=C(N/N=C/c1ccc(Br)cc1O)c1ccc(OC(F)F)cc1` [Compound A21, 4-Difluoromethoxy-N′-(4-bromo-2-hydroxybenzylidene)benzohydrazide] has an MIC80 (C. neoformans) of 0.12 µg/mL (≈ 0.312 µM).
